This note sets out measurements from patent US9464082B2, “Aryl and arylalkyl substituted pyrazolyl and pyrimidinyl tricyclic enones as antioxidant inflammation modulators” (AbbVie Inc., priority 2014, dated 2016).

In this experiment the test system is IFNγ-Induced NO Production. The experiment can be described thus: Nitric Oxide Suppression Assay (Suppression of IFNγ-Induced NO Production). Type of experiment: cell-based. The following applies: RAW264.7; RAW 264.7 mouse macrophage cells; 2 hour pre-treatment with compound (3 μM to 0.3 nM, 10 point curve); 20 ng/mL interferon gamma, ~18 hour; Griess detection; n=2-3 in duplicates. As for the experimental part: RAW 264.7, a mouse macrophage cell line, was obtained from American Type Culture Collection (Manassas Va.) and maintained in the log phase of growth in Dulbecco's Modified Eagle's Medium (DMEM), 10% heat inactivated fetal calf serum and 100 units/mL antibiotic-antimycotic (AA). Cells were cultured and maintained in a humidified incubator at 37° C. under 5% CO2 and 95% air. Cells were sub-cultured every 3 days by scraping and were not used beyond passage 20. All cell culture supplies were obtained from Life Technologies (Grand Island, N.Y.).
RAW 264.7 cells were plated 1 day in advance of experiment at a concentration of 80,000 cells/well onto CellBIND® 96 well plates (Corning, N.Y.) in a total volume of 100 μL. The next day, pre-treat cells with compounds (from 3 μM to 0.3 nM serially diluted in a 10 point curve) from a 10× stock by adding 10 μL per well in complete DMEM media containing 10% fetal calf serum. The plates were centrifuged for 3 minutes at 400×g at room temperature followed by 2 hour incubation at 37° C. The cells were then incubated overnight at 37° C. with 10 μL of the insult, interferon gamma (R&D Systems, Minneapolis, Minn.), from a 10× stock for a final concentration of 20 ng/mL. The plates were centrifuged for 3 minutes at 400×g at room temperature followed by ˜18 hour incubation at 37° C. The following day, transfer 50 μL cell culture supernatant from each well into a clear bottom 96 well plate and follow the instructions from Promega's Griess Detection Kit #G2930 (Madison, Wis.) which involves the addition of 50 μL of the provided sulfanilamide solution for a 5-10 minute incubation at room temperature. Next add 50 μL of the provided N-1-napthylethylenediamine dihydrochloride (NED) solution for a 5-10 minute incubation at room temperature and protected from light. If any air bubbles were introduced into the well, the plates need to be centrifuged for 5 minutes at 400×g at room temperature to avoid interference with absorbance readings. The plates were read for absorbance within 30 minutes with a filter between 520 nm and 550 nm.
For the ability of compounds to suppress the increase in nitric oxide release, the percent maximal intensity of nitric oxide detected in each well was normalized to that induced by the peak value for 20 ng/mL of interferon gamma alone and plotted against the compound concentration to calculate IC50 values and to control for plate-to-plate variability. Concentration-response data were analyzed using GraphPad Prism (San Diego, Calif.); the IC50 values were derived from a single curve fit to the mean data of n=2-3, in duplicates.
All compounds were dissolved in dimethyl sulfoxide at 10 mM stock solutions and tested at a concentration that the dimethyl sulfoxide levels never exceeded 1%.
(In general: Griess reagent forms a coloured azo dye with nitrite.)
For `C[C@@H]1C(=O)C(C#N)=C[C@]2(c3ccccc3)c3nn(C)c(-c4ccccc4)c3CC[C@@H]12` (racemic) [Example 2, rac-(5aS,6S,9aR)-2,6-dimethyl-7-oxo-3,9a-diphenyl-4,5,5a,6,7,9a-hexahydro-2H-benzo[g]indazole-8-carbonitrile], the IC50 was 16.9 nM. On to `C[C@@H]1C(=O)C(C#N)=C[C@]2(c3ccccc3)c3c(c(-c4ccccc4)nn3C)CC[C@@H]12` (racemic) [Example 3, rac-(5aS,6S,9aR)-1,6-dimethyl-7-oxo-3,9a-diphenyl-4,5,5a,6,7,9a-hexahydro-1H-benzo[g]indazole-8-carbonitrile], for which the IC50 was 7.19 nM.

On to `COc1cccc([C@]23C=C(C#N)C(=O)[C@@H](C)[C@@H]2CCc2cn(C)nc23)c1` (racemic) [Example 4, rac-(5aS,6S,9aR)-9a-(3-methoxyphenyl)-2,6-dimethyl-7-oxo-4,5,5a,6,7,9a-hexahydro-2H-benzo[g]indazole-8-carbonitrile], for which the IC50 was found to be 114 nM. Regarding `COc1cccc([C@]23C=C(C#N)C(=O)[C@@H](C)[C@@H]2CCc2cnn(C)c23)c1` (racemic) [Example 5, rac-(5aS,6S,9aR)-9a-(3-methoxyphenyl)-1,6-dimethyl-7-oxo-4,5,5a,6,7,9a-hexahydro-1H-benzo[g]indazole-8-carbonitrile], the IC50 is 41.3 nM. For `C[C@@H]1C(=O)C(C#N)=C[C@]2(c3ccccc3)c3[nH]nc(-c4ccccc4)c3CC[C@@H]12` (racemic) [Example 6, rac-(5aS,6S,9aR)-6-methyl-7-oxo-3,9a-diphenyl-4,5,5a,6,7,9a-hexahydro-1H-benzo[g]indazole-8-carbonitrile], the IC50 stood at 37.5 nM.

As for `C[C@@H]1C(=O)C(C#N)=C[C@]2(c3ccccc3)c3nc(-c4ccccc4)ncc3CC[C@@H]12` (racemic) [Example 7, rac-(6aS,7S,10aR)-7-methyl-8-oxo-2,10a-diphenyl-5,6,6a,7,8,10a-hexahydrobenzo[h]quinazoline-9-carbonitrile], the IC50 amounted to 30.4 nM.

Take `COc1nc(-c2ccccc2)nc2c1CC[C@H]1[C@H](C)C(=O)C(C#N)=C[C@]21c1ccccc1` (racemic) [Example 8, rac-(6aS,7S,10aR)-4-methoxy-7-methyl-8-oxo-2,10a-diphenyl-5,6,6a,7,8,10a-hexahydrobenzo[h]quinazoline-9-carbonitrile]: the 50% inhibitory concentration (IC50) was found to be 96.3 nM. For `C[C@@H]1C(=O)C(C#N)=C[C@]2(c3ccccc3)c3nc(Nc4ccccc4)ncc3CC[C@@H]12` (racemic) [Example 9, rac-(6aS,7S,10aR)-2-anilino-7-methyl-8-oxo-10a-phenyl-5,6,6a,7,8,10a-hexahydrobenzo[h]quinazoline-9-carbonitrile] the value was 5.99 nM; for `Cc1ncc2c(n1)[C@@]1(c3ccccc3)C=C(C#N)C(=O)[C@@H](C)[C@@H]1CC2` (racemic) [Example 33, rac-(6aS,7S,10aR)-2,7-dimethyl-8-oxo-10a-phenyl-5,6,6a,7,8,10a-hexahydrobenzo[h]quinazoline-9-carbonitrile], 23 nM. For `C[C@@H]1C(=O)C(C#N)=C[C@]2(Cc3ccccc3)c3nn(C)cc3CC[C@@H]12` (racemic) [Example 162, rac-(5aS,6S,9aR)-9a-benzyl-2,6-dimethyl-7-oxo-4,5,5a,6,7,9a-hexahydro-2H-benzo[g]indazole-8-carbonitrile] the value was 231 nM; for `C[C@@H]1C(=O)C(C#N)=C[C@]2(Cc3ccccc3)c3c(cnn3C)CC[C@@H]12` (racemic) [Example 163, rac-(5aS,6S,9aR)-9a-benzyl-1,6-dimethyl-7-oxo-4,5,5a,6,7,9a-hexahydro-1H-benzo[g]indazole-8-carbonitrile], 406 nM. `C[C@@H]1C(=O)C(C#N)=C[C@]2(Cc3ccccc3)c3nn(C)c(-c4ccccc4)c3CC[C@@H]12` (racemic) [Example 164, rac-(5aS,6S,9aR)-9a-benzyl-2,6-dimethyl-7-oxo-3-phenyl-4,5,5a,6,7,9a-hexahydro-2H-benzo[g]indazole-8-carbonitrile]: the IC50 came to 65 nM. In the case of `C[C@@H]1C(=O)C(C(N)=O)=C[C@]2(Cc3ccccc3)c3nn(C)c(-c4ccccc4)c3CC[C@@H]12` (racemic) [Example 165, rac-(5aS,6S,9aR)-9a-benzyl-2,6-dimethyl-7-oxo-3-phenyl-4,5,5a,6,7,9a-hexahydro-2H-benzo[g]indazole-8-carboxamide] it was 706 nM. Consider `C[C@@H]1C(=O)C(C#N)=C[C@]2(c3ccccc3)c3nn(Cc4ccccc4)cc3CC[C@@H]12` (single isomer, unassigned) [Example 56], for which the IC50 was found to be 93.2 nM. Consider `C[C@@H]1C(=O)C(C#N)=C[C@]2(c3ccccc3)c3c(cnn3Cc3ccccc3)CC[C@@H]12` (single isomer, unassigned) [Example 57], for which the IC50 came out at 22 nM.

`C[C@@H]1C(=O)C(C#N)=C[C@]2(c3ccccc3)c3ncncc3CC[C@@H]12` [Example 1, (6aS,7S,10aR)-7-methyl-8-oxo-10a-phenyl-5,6,6a,7,8,10a-hexahydrobenzo[h]quinazoline-9-carbonitrile]: the 50% inhibitory concentration (IC50) is 5.35 nM. `COc1ccccc1-c1nc(OC)c2c(n1)[C@@]1(c3ccccc3)C=C(C#N)C(=O)[C@@H](C)[C@@H]1CC2` [Example 10, (6aS,7S,10aR)-4-methoxy-2-(2-methoxyphenyl)-7-methyl-8-oxo-10a-phenyl-5,6,6a,7,8,10a-hexahydrobenzo[h]quinazoline-9-carbonitrile]: the IC50 turned out to be 22.5 nM.

`C[C@@H]1C(=O)C(C#N)=C[C@]2(c3ccccc3)c3nc(-c4cccnc4)ncc3CC[C@@H]12` [Example 11, (6aS,7S,10aR)-7-methyl-8-oxo-10a-phenyl-2-(pyridin-3-yl)-5,6,6a,7,8,10a-hexahydrobenzo[h]quinazoline-9-carbonitrile]: the IC50 is 6.03 nM. For the compound `CCNc1ncc2c(n1)[C@@]1(c3ccccc3)C=C(C#N)C(=O)[C@@H](C)[C@@H]1CC2` [Example 12, (6aS,7S,10aR)-2-(ethylamino)-7-methyl-8-oxo-10a-phenyl-5,6,6a,7,8,10a-hexahydrobenzo[h]quinazoline-9-carbonitrile], the IC50 came to 24.1 nM. In the case of `COc1nc(C)nc2c1CC[C@H]1[C@H](C)C(=O)C(C#N)=C[C@]21c1ccccc1` [Example 13, (6aS,7S,10aR)-4-methoxy-2,7-dimethyl-8-oxo-10a-phenyl-5,6,6a,7,8,10a-hexahydrobenzo[h]quinazoline-9-carbonitrile] it was 4.8 nM. As for `COc1nc(Nc2ccccc2)nc2c1CC[C@H]1[C@H](C)C(=O)C(C#N)=C[C@]21c1ccccc1` [Example 14, (6aS,7S,10aR)-2-anilino-4-methoxy-7-methyl-8-oxo-10a-phenyl-5,6,6a,7,8,10a-hexahydrobenzo[h]quinazoline-9-carbonitrile], the IC50 was 11.4 nM. For `COc1nc(Nc2ccc(Br)cc2)nc2c1CC[C@H]1[C@H](C)C(=O)C(C#N)=C[C@]21c1ccccc1` [Example 15, (6aS,7S,10aR)-2-[(4-bromophenyl)amino]-4-methoxy-7-methyl-8-oxo-10a-phenyl-5,6,6a,7,8,10a-hexahydrobenzo[h]quinazoline-9-carbonitrile], the IC50 was determined as 30 nM. As to `C[C@@H]1C(=O)C(C#N)=C[C@]2(c3ccccc3)c3nc(Nc4ccccc4)nc(-c4cncnc4)c3CC[C@@H]12` [Example 16, (6aS,7S,10aR)-2-anilino-7-methyl-8-oxo-10a-phenyl-4-(pyrimidin-5-yl)-5,6,6a,7,8,10a-hexahydrobenzo[h]quinazoline-9-carbonitrile], the 50% inhibitory concentration (IC50) amounted to 7.8 nM. Consider `Cc1nc(-c2cncn2C)c2c(n1)[C@@]1(c3ccccc3)C=C(C#N)C(=O)[C@@H](C)[C@@H]1CC2` [Example 17, (6aS,7S,10aR)-2,7-dimethyl-4-(1-methyl-1H-imidazol-5-yl)-8-oxo-10a-phenyl-5,6,6a,7,8,10a-hexahydrobenzo[h]quinazoline-9-carbonitrile], for which the IC50 came to 3.25 nM.

As for `Cc1nc(-c2cnc(C)s2)c2c(n1)[C@@]1(c3ccccc3)C=C(C#N)C(=O)[C@@H](C)[C@@H]1CC2` [Example 18, (6aS,7S,10aR)-2,7-dimethyl-4-(2-methyl-1,3-thiazol-5-yl)-8-oxo-10a-phenyl-5,6,6a,7,8,10a-hexahydrobenzo[h]quinazoline-9-carbonitrile], the IC50 turned out to be 5.17 nM.

A word on the IC50: it is the concentration that gives 50% inhibition.
